These results are taken from patent US5693617A, “Inhibitors of the 26s proteolytic complex and the 20s proteasome contained therein” (ProScript, Inc., priority 1995, dated 1997).

Entries after “also recorded” stand apart in the source; their conditions may differ. Non-standard residues stand in square brackets, D forms with d. Residues, ends and D or L forms follow the SMILES beside them. Nle = CCCC[C@H](N)C(=O)O

In one test the test system is RMA cells. The test is described as follows: Class I MHC assembly in RMA cells. Type of test: cell-based. As to the method:
Class I MHC molecules are peptide-binding receptors composed of a heavy and a light chain. Peptide binding to these molecules is essential for the stable association of the heavy and light chains. […] To test the effect of MG 101 on class I assembly, RMA cells were incubated with and without MG 101 (100 μM) for 1 hr at 37° C., electroporated with and without MG 101 (100 μM) as described in Example 7, and incubated with and without MG 101 (100 μM) for 3 hrs at 37° C. Over the last 30 min of incubation the cells were pulse labeled with ^35 S-methionine and were then washed and detergent lysates were prepared. Lysates were divided and class I binding peptides were added to one group. Class I molecules were immunoprecipitated with a mAb, Y3 (Townsend et al., Cell 62:285-295 (1990)), that only reacts with assembled class I heterodimers and analyzed as previously described ([…] et al., Nature 363:552-554 (1993)).

Test [1] relates to mouse B lymphoblastoid cell line (LB27.4). Kind of test: MHC-I antigen presentation, electroporated antigen-presenting cells. Type of test: cell-based. As to the method: (§1) Antigen-presenting cells (APCs)--mouse B lymphoblastoid cell line (LB27.4)--were washed free of serum and loaded with an ovalbumin peptide (residues 257-263), which corresponds to the sequence these cells naturally generate and present. The APCs were incubated 1 hr at 37° C., electroporated with antigen, incubated 10 min on ice and washed. The antigen loaded cells were incubated 2 hrs at 37° C., fixed with paraformaldehyde, and washed. MG 101 at the concentrations indicated in FIG. 5 was present in all steps prior to fixation. APCs were assayed for antigen presentation as described in Rock et al., J. Immunol. 145:804-811 (1990) and Carbone et al., J. Exp Med. 171:377-387 (1990). […] In the left panel, APCs were treated with (open circles) or without (closed circles) MG 101 and electroporated with ovalbumin. In the right panel, APCs were treated with (open circles) or without (closed circles) MG 101 and electroporated with ovalbumin peptide.

In the next test the test system is human cell line RAJI-K^b. Kind of test: MHC-I antigen presentation in human cells. Type of test: cell-based. The note with it: FIG. 8. Here is the method: as §1, with “peptide. Example 7 was repeated except that the human cell line RAJI-K^b was used.” for “peptide.”
Another test deals with rat soleus muscle. The test is described as follows: Denervation-induced protein degradation in incubated rat soleus muscle. The note with it: 100 μM MG 101; FIG. 4. As to the method:
One leg of each of seven rats was denervated by section of the sciatic nerve 3 days prior to sacrifice. […] After incubation, the tissue was homogenized, and ^3 -phenylalanine incorporation into protein and free tyrosine of the medium was measured.

A further test concerns the target T1, 26S proteasome (Oryctolagus cuniculus, UniProt G1T4Q9).
T1 sequence (G1T4Q9 60-263): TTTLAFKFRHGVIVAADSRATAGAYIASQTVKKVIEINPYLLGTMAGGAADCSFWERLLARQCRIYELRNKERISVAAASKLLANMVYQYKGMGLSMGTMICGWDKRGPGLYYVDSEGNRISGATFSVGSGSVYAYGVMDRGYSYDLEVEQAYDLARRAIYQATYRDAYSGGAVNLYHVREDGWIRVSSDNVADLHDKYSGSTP
T1 sequence (G1SU71 1-241 partner): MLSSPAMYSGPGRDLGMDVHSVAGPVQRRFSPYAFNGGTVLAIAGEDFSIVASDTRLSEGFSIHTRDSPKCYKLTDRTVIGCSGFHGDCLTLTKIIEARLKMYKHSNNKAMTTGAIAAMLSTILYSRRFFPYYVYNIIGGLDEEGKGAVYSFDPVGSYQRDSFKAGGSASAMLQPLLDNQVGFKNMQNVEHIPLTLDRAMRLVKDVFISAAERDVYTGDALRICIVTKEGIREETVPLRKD
The test is described as follows: Inhibition of the 26S proteasome (kinetic experiments). Particulars: summary of enzyme inhibition; read-out: Ki, 26S proteasome complex activity. Type of test: biochemical, Rabbit. From the text: Tables I-III summarize results from kinetic experiments that measured the inhibition of the 20S and 26S proteasomes, as well as cathepsin B and calpain, enzymes that may also be involved in muscle protein turnover. In these tables, Ki values are reported, which are dissociation constants for the equilibrium that is established when enzyme and inhibitor interact to form the enzyme:inhibitor complex.
The substances and assay conditions are briefly summarized in the footnotes to Table I. MG 101 and MG 102, also known as Calpain Inhibitor I and II, were purchased from Calbiochem as catalogue products.
(^b) Rabbit muscle. Substrate: […]. [Mg:ATP] = 2 mM.

For test [2], the target named is chymotrypsin-like activity of the proteasome. Particulars: Vinitsky et al. 1992; slow binding inhibitors; cited from earlier work.

As usually defined, the Ki is a dissociation constant, usually derived from enzyme kinetics or from competition with a known ligand. With `CCCC[C@@H](C=O)NC(=O)[C@H](CC(C)C)NC(=O)[C@H](CC(C)C)NC(C)=O` [MG 101, Ac-Leu-Leu-Nle-H] (Ac-Leu-Leu-[Nle]-aldehyde), the “Assembly of class I heterodimers” value in the test with RMA cells (100 μM MG 101, FIG. 7) is reported as “markedly reduced”. Also, the “Class I complex formation from introduced antigenic peptide” value with RMA cells (100 μM MG 101, FIG. 7 lane 4) is on record as “fails to inhibit complex formation from introduced antigenic peptide”. Also, the “Appearance of MHC-I molecules on the cell surface” value with RMA cells (FIG. 7) is “specifically blocks the movement of functional MHC-I complexes to the cell surface; also recorded: blocks the appearance of MHC-I molecules on the cell surface”. Besides, in the test on RMA cells (control experiments), the “Level of the individual class I subunits” value is on record as “does not affect the level of the individual subunits”. For the same compound, the “MHC-I presentation of ovalbumin peptide” value in test [1] (APCs electroporated with ovalbumin peptide, FIG. 5 right panel) was “fails to block the presentation of the specific peptide; also recorded: does not inhibit the presentation of electroporated peptide”. In addition, in test [1] (APCs electroporated with ovalbumin, FIG. 5 left panel), the “MHC-I presentation of ovalbumin” value is reported as “inhibits the presentation of ovalbumin with class I MHC molecules; also recorded: inhibits presentation of antigen from ovalbumin”. Further, the “Presentation of antigen from ovalbumin in human cells” value with human cell line RAJI-K^b is given as “prevents antigen presentation in human cells; also recorded: inhibits presentation of antigen from ovalbumin in human cells”. The “Protein degradation induced by denervation in incubated rat soleus muscle” value in the test with rat soleus muscle is listed as “inhibits the accelerated proteolysis in muscle; also recorded: inhibition of protein degradation”. In addition, the values for the Ki (at 26S proteasome; in test [2]) were 2.9 µM and 5.7 µM, respectively.
